In the assay the test system is HIV-1. The experiment in a line: Single-round infectious HIV-1 luciferase reporter virus infection of HeLa CD4 cells. Type of assay: cell-based. Conditions: Human immunodeficiency virus 1, HeLa, 72 h, read-out: EC50 Group from Table 1. On the procedure:
• Virus production—Human embryonic Kidney cell line, 293T, was propagated in Dulbecco's Modified Eagle Medium (Invitrogen, Carlsbad, Calif.) containing 10% fetal Bovine serum (FBS, Sigma, St. Louis, Mo.). • Virus infection—Human epithelial cell line, HeLa, expressing the HIV-1 receptor CD4 was propagated in Dulbecco's Modified Eagle Medium (Invitrogen, Carlsbad, Calif.) containing 10% fetal Bovine serum (FBS, Sigma, St. Louis, Mo.) and supplemented with 0.2 mg/mL Geneticin (Invitrogen, Carlsbad, Calif.). Virus—Single-round infectious reporter virus was produced by co-transfecting human embryonic Kidney 293 cells with an HIV-1 envelope DNA expression vector and a proviral cDNA containing an envelope deletion mutation and the luciferase reporter gene inserted in place of HIV-1 nef sequences (Chen et al, Ref 41). Transfections were performed using lipofectAMINE PLUS reagent as described by the manufacturer (Invitrogen, Carlsbad, Calif.). Experiment • 1. HeLa CD4 cells were plated in 96 well plates at a cell density of 1×10^4 cells per well in 100 μl Dulbecco's Modified Eagle Medium containing 10% fetal Bovine serum and incubated overnight. • 2. Compound was added in a 2 μl dimethylsulfoxide solution, so that the final assay concentration would be ≦10 μM. • 3. 100 μl of single-round infectious reporter virus in Dulbecco's Modified Eagle Medium was then added to the plated cells and compound at an approximate multiplicity of infection (MOI) of 0.01, resulting in a final volume of 200 μl per well. • 4. Virally-infected cells were incubated at 37 degrees Celsius, in a CO2 incubator, and harvested 72 h after infection. • 5. Viral infection was monitored by measuring luciferase expression from viral DNA in the infected cells using a luciferase reporter gene assay kit, as described by the manufacturer (Roche Molecular Biochemicals, Indianapolis, Ind.). Infected cell supernatants were removed and 50 μl of lysis buffer was added per well. After 15 minutes, 50 μl of freshly-reconstituted luciferase assay reagent was added per well. Luciferase activity was then quantified by measuring luminescence using a Wallac microbeta scintillation counter. • 6. The percent inhibition for each compound was calculated by quantifying the level of luciferase expression in cells infected in the presence of each compound as a percentage of that observed for cells infected in the absence of compound and subtracting such a determined value from 100. • 7. An EC50 provides a method for comparing the antiviral potency of the compounds of this invention. The effective concentration for fifty percent inhibition (EC50) was calculated with the Microsoft Excel Xlfit curve fitting software. For each compound, curves were generated from percent inhibition calculated at 10 different concentrations by using a four parameter logistic model (model 205). Table 1 is the key for the data in Table 2. Results

For the compound `N#CC(=C1CCN(C(=O)C(=O)c2c[nH]c3c(NC(=O)NC4CCN(C(=O)C(F)(F)F)CC4)cccc23)CC1)c1ccccc1` [P-C-25], the EC50 is under 1000 nM.

In the case of `C[C@@H]1CN(C(=O)c2ccccc2)CCN1C(=O)C(=O)c1c[nH]c2c(NC(=O)NCCCC(=O)O)cccc12` [P-I-4], the EC50 was under 1000 nM.

`C[C@@H]1CN(C(=O)c2ccccc2)CCN1C(=O)C(=O)c1c[nH]c2c(NC(=O)NCCCCCCNC(=O)Nc3ccc(B(O)O)cc3)cccc12` [P-C-106]: the EC50 was under 1000 nM.

Take `C[C@@H]1CN(C(=O)c2ccccc2)CCN1C(=O)C(=O)c1c[nH]c2c(NC(=O)NCCCCCCCCNC(=O)Nc3ccc(B(O)O)cc3)cccc12` [P-C-109]: the EC50 is under 1000 nM.

In the case of `N#CC(=C1CCN(C(=O)C(=O)c2c[nH]c3c(NC(=O)Nc4ccccc4C(=O)O)cccc23)CC1)c1ccccc1` [P-I-10], the EC50 was under 1000 nM.

On to `N#CC(=C1CCN(C(=O)C(=O)c2c[nH]c3c(NC(=O)Nc4ccc(C#N)cc4)cccc23)CC1)c1ccccc1` [P-C-23], for which the half-maximal effective concentration (EC50) was under 1000 nM.

As for `CCOC(=O)CCCNC(=O)Nc1cccc2c(C(=O)C(=O)N3CCN(C(=O)c4ccccc4)C[C@H]3C)c[nH]c12` [P-C-5], the EC50 is under 1000 nM.

Take `C[C@@H]1CN(C(=O)c2ccccc2)CCN1C(=O)C(=O)c1c[nH]c2c(NC(=O)c3ccccn3)cccc12` [P-A-20]: the EC50 is under 1000 nM.

On to `CC(=O)Nc1ccc(F)c2c(C(=O)C(=O)N3CCC(=C(C#N)c4ccccc4)CC3)c[nH]c12` [P-B-4], for which the EC50 is under 1000 nM.

As to `COC(=O)C(O)C(O)C(=O)Nc1cccc2c(C(=O)C(=O)N3CCN(C(=O)c4ccccc4)C[C@H]3C)c[nH]c12` (some centres unmarked) [P-A-17], the EC50 is under 1000 nM.

Turning to `C[C@@H]1CN(C(=O)c2ccccc2)CCN1C(=O)C(=O)c1c[nH]c2c(NC(=O)NCCCCCCNC(=O)Nc3cccc(B(O)O)c3)cccc12` [P-C-113], the concentration for a half-maximal effect (EC50) is under 1000 nM.

Take `O=C(O)CCCNC(=O)Nc1ncc(F)c2c(C(=O)C(=O)N3CCN(C(=O)c4ccccc4)CC3)c[nH]c12` [P-I-16]: the EC50 is under 1000 nM.

On to `C[C@@H]1CN(C(=O)c2ccccc2)CCN1C(=O)C(=O)c1c[nH]c2c(NC(=O)Nc3ccc(B(O)O)cc3)cccc12` [P-C-204], for which the EC50 is under 1000 nM.

Turning to `CCOC(=O)CCCNC(=O)Nc1cccc2c(C(=O)C(=O)N3CCC(=C(C#N)c4ccccc4)CC3)c[nH]c12` [P-C-6], the EC50 was under 1000 nM.

Turning to `CCOC(=O)c1ccc(NC(=O)Nc2cccc3c(C(=O)C(=O)N4CCC(=C(C#N)c5ccccc5)CC4)c[nH]c23)cc1` [P-C-15], the EC50 is under 1000 nM.

With `C[C@@H]1CN(C(=O)c2ccccc2)CCN1C(=O)C(=O)c1c[nH]c2c(NC(=O)NCCOCCOCCNC(=O)c3ccc(B(O)O)cc3)cccc12` [P-C-402], the EC50 was under 1000 nM.

Take `C[C@@H]1CN(C(=O)c2ccccc2)CCN1C(=O)C(=O)c1c[nH]c2c(NC(=O)Nc3ccccc3C(=O)O)cccc12` [P-I-9]: the half-maximal effective concentration (EC50) is under 1000 nM.

On to `C[C@@H]1CN(C(=O)c2ccccc2)CCN1C(=O)C(=O)c1c[nH]c2c(NC(=O)CO)cccc12` [P-I-1], for which the EC50 was under 1000 nM.

For the compound `C[C@@H]1CN(C(=O)c2ccccc2)CCN1C(=O)C(=O)c1c[nH]c2c(NC(=O)C[N+](C)(C)C)cccc12` [P-A-2], the concentration for a half-maximal effect (EC50) is under 1000 nM.

For `CCOC(=O)c1cccc(NC(=O)Nc2cccc3c(C(=O)C(=O)N4CCN(C(=O)c5ccccc5)C[C@H]4C)c[nH]c23)c1` [P-C-12], the 50% effective concentration (EC50) is under 1000 nM.

As for `CCOC(=O)CC[C@@H]1NC(=O)N(c2cccc3c(C(=O)C(=O)N4CCC(=C(C#N)c5ccccc5)CC4)c[nH]c23)C1=O` [P-G-3], the half-maximal effective concentration (EC50) was under 1000 nM.

In the case of `C[C@@H]1CN(C(=O)c2ccccc2)CCN1C(=O)C(=O)c1cn(S(C)(=O)=O)c2c(NS(C)(=O)=O)cccc12` [P-E-2], the EC50 is under 1000 nM.

For `CC(=O)Nc1cccc2c(C(=O)C(=O)N3CCN(C(=O)c4ccccc4)C[C@H]3C)c[nH]c12` [P-A-5], the EC50 is under 1000 nM.

Consider `C[C@@H]1CN(C(=O)c2ccccc2)CCN1C(=O)C(=O)c1c[nH]c2c(NC(=O)CCC(=O)O)cccc12` [P-A-8], for which the EC50 is under 1000 nM.

For `C[C@@H]1CN(C(=O)c2ccccc2)CCN1C(=O)C(=O)c1c[nH]c2c(NC(=O)[C@@H]3OC(C)(C)O[C@H]3C(=O)O)cccc12` [P-A-16], the EC50 is under 1000 nM.

Consider `C[C@@H]1CN(C(=O)c2ccccc2)CCN1C(=O)C(=O)c1c[nH]c2c(NC(=O)C(=O)O)cccc12` [P-A-18], for which the EC50 was under 1000 nM.

For the compound `COC(=O)c1cc(NC(=O)Nc2cccc3c(C(=O)C(=O)N4CCC(=C(C#N)c5ccccc5)CC4)c[nH]c23)cc(C(=O)OC)c1` [P-C-17], the EC50 was under 1000 nM.

`CCOC(=O)CCCCCNC(=O)Nc1cccc2c(C(=O)C(=O)N3CCN(C(=O)c4ccccc4)C[C@H]3C)c[nH]c12` [P-C-7]: the EC50 is under 1000 nM.

`CCOC(=O)c1ccc(NC(=O)Nc2cccc3c(C(=O)C(=O)N4CCN(C(=O)c5ccccc5)C[C@H]4C)c[nH]c23)cc1` [P-C-14]: the concentration giving a half-maximal response (EC50) was under 1000 nM.

On to `COC(=O)CCC(=O)Nc1cccc2c(C(=O)C(=O)N3CCN(C(=O)c4ccccc4)C[C@H]3C)c[nH]c12` [P-A-7], for which the EC50 is under 1000 nM.

In the case of `C[C@@H]1CN(C(=O)c2ccccc2)CCN1C(=O)C(=O)c1c[nH]c2c(N3CCN(CCN(C)C)C3=O)cccc12` [P-H-2], the EC50 is under 1000 nM.

On to `CC(=O)Nc1ccc(F)c2c(C(=O)C(=O)N3CCC(=C(C#N)c4ccncc4)CC3)c[nH]c12` [P-B-6], for which the EC50 is under 1000 nM.

With `N#CC(=C1CCN(C(=O)C(=O)c2c[nH]c3c(NC(=O)NC(CCC(=O)O)C(=O)O)cccc23)CC1)c1ccccc1` (centres unmarked) [P-I-8], the EC50 is under 1000 nM.

Turning to `C[C@@H]1CN(C(=O)c2ccccc2)CCN1C(=O)C(=O)c1c[nH]c2c(NC(=O)NCC(=O)O)cccc12` [P-I-18], the 50% effective concentration (EC50) was under 1000 nM.

Take `N#CC(=C1CCN(C(=O)C(=O)c2c[nH]c3c(NC(=O)Nc4cc(C(=O)O)cc(C(=O)O)c4)cccc23)CC1)c1ccccc1` [P-I-15]: the EC50 was under 1000 nM.

`C[C@@H]1CN(C(=O)c2ccccc2)CCN1C(=O)C(=O)c1c[nH]c2c(NC(=O)CN(C)C)cccc12` [P-A-3]: the EC50 was under 1000 nM.

`N#CC(=C1CCN(C(=O)C(=O)c2c[nH]c3c(NC(=O)Nc4ccc(C(=O)O)cc4)cccc23)CC1)c1ccccc1` [P-I-13]: the EC50 was under 1000 nM.

Take `CC1NC(=O)N(c2cccc3c(C(=O)C(=O)N4CCN(C(=O)c5ccccc5)C[C@H]4C)c[nH]c23)C1=O` (some centres unmarked) [P-G-2]: the EC50 is under 1000 nM.

As to `COC(=O)NCCCCNC(=O)Nc1cccc2c(C(=O)C(=O)N3CCN(C(=O)c4ccccc4)C[C@H]3C)cn(C(=O)NCCCCNC(=O)OC)c12` [P-C-115], the 50% effective concentration (EC50) is under 1000 nM.

On to `C[C@@H]1CN(C(=O)c2ccccc2)CCN1C(=O)C(=O)c1c[nH]c2c(NC(=O)CNC(C)(C)C)cccc12` [P-A-1], for which the EC50 was under 1000 nM.

For `CNCCCN(C)CCN1CCN(c2cccc3c(C(=O)C(=O)N4CCN(C(=O)c5ccccc5)C[C@H]4C)c[nH]c23)C1=O` [P-H-3], the EC50 was under 1000 nM.

As for `C[C@@H]1CN(C(=O)c2ccccc2)CCN1C(=O)C(=O)c1c[nH]c2c(NS(=O)(=O)N(C)C)cccc12` [P-E-5], the EC50 is under 1000 nM.

As for `CC(=O)Nc1ccc(F)c2c(C(=O)C(=O)N3CC/C(=C(\C#N)c4cccnc4)CC3C)c[nH]c12` (centres unmarked) [P-B-7], the EC50 was under 1000 nM.

As to `CNCCN1CCN(c2cccc3c(C(=O)C(=O)N4CCN(C(=O)c5ccccc5)C[C@H]4C)c[nH]c23)C1=O` [P-H-1], the EC50 is under 1000 nM.

As to `C[C@@H]1CN(C(=O)c2ccccc2)CCN1C(=O)C(=O)c1c[nH]c2c(NS(C)(=O)=O)cccc12` [P-E-1], the 50% effective concentration (EC50) was under 1000 nM.

`C[C@@H]1CN(C(=O)c2ccccc2)CCN1C(=O)C(=O)c1c[nH]c2c(NC(=O)NCCCCNC(=O)Nc3cccc(B(O)O)c3)cccc12` [P-C-112]: the EC50 was under 1000 nM.

Regarding `CC(C)COC(=O)Nc1cccc2c(C(=O)C(=O)N3CCN(C(=O)c4ccccc4)C[C@H]3C)c[nH]c12` [P-D-1], the EC50 is under 1000 nM.
